One series deals with T1, MC3 receptor (MC3R) (Homo sapiens, UniProt P41968).
T1 construct: expressed in transfected cells; host or cells: CHO-CRE MC3R cells (membranes)
Description: Nle4, D-Phe7-α-MSH inhibition at the MC3 receptor (competition binding, SPA, CHO-CRE MC3R membranes). In short, it runs like this:
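Competition binding by SPA used CHO-CRE MC3R membranes on WGA beads with 0.06 nM [125I]Nle4,D-Phe7-α-MSH and 11 half-log competitor concentrations. Buffer was 25 mM HEPES, MgCl2, CaCl2, 1% Pluronic F68, pH7, incubated 12 h at room temperature. Non-specific binding was defined with 100 nM SHU9119, and Ki values were derived.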

A short description of series [1]: In vitro metabolism rate determination, human liver microsome (HLM) assay. It is filed as in vitro ADME. Particulars: human, liver microsomes, read-out: HLM: Clint, app. In a few lines:
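Human liver microsomes at 0.5 nmol cytochrome P450/ml with 1 μM substrate, pre-warmed 5 min at 37° C, reaction started with NADP; samples taken 0–60 min and terminated. Substrate loss measured; first-order rate constant from log-linear regression converted to half-life or Clint (μl/min/mg protein).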

Molecules are shown by their SMILES.

T1 sequence (P41968 whole entry): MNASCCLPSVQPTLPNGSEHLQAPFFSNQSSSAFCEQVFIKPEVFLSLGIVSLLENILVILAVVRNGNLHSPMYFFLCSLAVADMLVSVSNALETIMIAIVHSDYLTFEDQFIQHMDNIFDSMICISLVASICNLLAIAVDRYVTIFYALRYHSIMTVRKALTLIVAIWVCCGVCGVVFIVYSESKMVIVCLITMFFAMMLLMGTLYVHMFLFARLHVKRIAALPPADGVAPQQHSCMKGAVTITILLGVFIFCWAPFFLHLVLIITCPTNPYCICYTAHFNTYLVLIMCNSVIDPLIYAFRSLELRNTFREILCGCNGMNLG

The Ki is the dissociation constant of the complex between target and ligand, obtained from inhibition or displacement. A higher Ki goes with a looser hold on the target. On to `CC(C)(C)N1C[C@@H](C(=O)N2CCC[C@@H](c3ccc(Cl)cc3)N(C(=O)C3CCC3)CC2)[C@H](c2ccc(F)cc2F)C1` [Example 14], for which the affinity on MC3 receptor (MC3R) corresponds to a Ki of 4.06 µM. Besides, in series [1], the microsomal CLint at 1 μM was determined as 82.8 µL/min/mg.

`CS(=O)(=O)N1CCN(C(=O)[C@@H]2CN(c3ccc(=O)[nH]n3)C[C@H]2c2ccc(F)cc2F)CCCC1c1ccc(Cl)cc1` (mixture of isomers) [Example 79]: the Ki at MC3 receptor (MC3R) was determined as 1.11 µM. Further, the microsomal CLint at 1 μM in series [1] is 22 µL/min/mg.

`CC(=O)N1CCN(C(=O)[C@@H]2CN(c3ccc(C#N)nn3)C[C@H]2c2ccc(Cl)cn2)CCC[C@H]1c1ccc(Cl)cc1` [Example 72]: the Ki at MC3 receptor (MC3R) stood at 0.141 µM. Also, the microsomal CLint at 1 μM in series [1] came out at 13 µL/min/mg.

On MC3 receptor (MC3R), `COc1ccc([C@@H]2CN(c3ccc(=O)[nH]n3)C[C@H]2C(=O)N2CCC[C@@H](c3ccc(Cl)cc3)N(C(C)=O)CC2)c(F)c1` [Example 68, 6-[(3S,4R)-3-{[4-acetyl-5S-(4-chlorophenyl)-1,4-diazocan-1-yl]carbonyl}-4-(2-fluoro-4-methoxyphenyl)pyrrolidin-1-yl]pyridazin-3(2H)-one] showed an inhibitory constant (Ki) of 0.308 µM. The microsomal CLint at 1 μM in series [1] is 13.7 µL/min/mg.

`CC(=O)N1CCN(C(=O)[C@@H]2CN(c3cccnn3)C[C@H]2c2ccc(F)cc2F)CCCC1c1ccccc1` (mixture of isomers) [Example 103] had a Ki on MC3 receptor (MC3R) of 1.54 µM. Also, the microsomal CLint at 1 μM in series [1] turned out to be 102 µL/min/mg.

`CC(C)C(=O)N1CCN(C(=O)[C@@H]2CN(C(C)(C)C)C[C@H]2c2ccc(F)cc2F)CCC[C@H]1c1ccc(Cl)cc1` [Example 11]: the affinity at MC3 receptor (MC3R), expressed as Ki, was 4.09 µM. In addition, the microsomal CLint at 1 μM in series [1] stood at 23.6 µL/min/mg.

At MC3 receptor (MC3R), `CC(C)C(=O)N1CCN(C(=O)[C@@H]2CN(C(C)(C)C)C[C@H]2c2ccc(Cl)cn2)CCC[C@H]1c1ccc(Cl)cc1` [Example 20, 1-{[(3S,4S)-1-tert-butyl-4-(5-chloropyridin-2-yl)pyrrolidin-3-yl]carbonyl}-5S-(4-chlorophenyl)-4-isobutyryl-1,4-diazocane] returned a Ki of 0.386 µM. In addition, the microsomal CLint at 1 μM in series [1] turned out to be 18.1 µL/min/mg.

On MC3 receptor (MC3R), `COC(=O)N1CCN(C(=O)[C@@H]2CN(C(C)(C)C)C[C@H]2c2ccc(OC)cc2F)CCCC1c1ccc(Cl)cc1` (stereo partly shown) [Example 91] showed a Ki of 4.3 µM. Also, in series [1], the microsomal CLint at 1 μM was 46.9 µL/min/mg.

Compound `COc1ccc([C@@H]2CN(c3ccc(=O)n(C)n3)C[C@H]2C(=O)N2CCCC(c3ccc(Cl)cc3)N(S(C)(=O)=O)CC2)c(F)c1` (single isomer, unassigned) [Example 117] gave an inhibition constant (Ki) at MC3 receptor (MC3R) of 1.15 µM. The microsomal CLint at 1 μM in series [1] worked out at 35.1 µL/min/mg.

The compound `COc1ccc([C@@H]2CN(c3ccc(C#N)nn3)C[C@H]2C(=O)N2CCC[C@@H](c3ccc(Cl)cc3)N(C(C)=O)CC2)c(F)c1` [Example 67] showed a Ki on MC3 receptor (MC3R) of 0.162 µM. In addition, the microsomal CLint at 1 μM in series [1] amounted to 21.4 µL/min/mg.

With `COC(=O)N1CCN(C(=O)[C@@H]2CN(c3ccc(=O)n(C)n3)C[C@H]2c2ccc(OC)cc2F)CCC[C@@H]1c1ccc(Cl)cc1` [Example 119, methyl 8R-(4-chlorophenyl)-4-{[(3S,4R)-4-(2-fluoro-4-methoxyphenyl)-1-(1-methyl-6-oxo-1,6-dihydropyridazin-3-yl)pyrrolidin-3-yl]carbonyl}-1,4-diazocane-1-carboxylate], affinity on MC3 receptor (MC3R) was put at a Ki of 0.9 µM. Besides, the microsomal CLint at 1 μM in series [1] worked out at 18.8 µL/min/mg.

In turn, `CS(=O)(=O)N1CCN(C(=O)[C@@H]2CN(c3ccc(C#N)nn3)C[C@H]2c2ccc(F)cc2F)CCCC1c1ccc(Cl)cc1` (mixture of isomers) [Example 76] yielded a Ki at MC3 receptor (MC3R) of 0.96 µM. Besides, the microsomal CLint at 1 μM in series [1] stood at 11 µL/min/mg.

In the case of `CNC(=O)N1CCN(C(=O)[C@@H]2CN(c3cccnn3)C[C@H]2c2ccc(F)cc2F)CCCC1c1ccccc1` (mixture of isomers) [Example 73], at MC3 receptor (MC3R), the affinity corresponds to a Ki of 0.981 µM. The microsomal CLint at 1 μM in series [1] amounted to 53 µL/min/mg.

`CCC(=O)N1CCN(C(=O)[C@@H]2CN(C(C)(C)C)C[C@H]2c2ccc(F)cc2F)CCC[C@H]1c1ccc(Cl)cc1` [Example 10] gave a Ki at MC3 receptor (MC3R) of 6.59 µM. Further, in series [1], the microsomal CLint at 1 μM came to 22.1 µL/min/mg.

In turn, `COC(=O)N1CCN(C(=O)[C@@H]2CN(c3ccc(=O)[nH]n3)C[C@H]2c2ccc(OC)cc2F)CCC[C@@H]1c1ccc(Cl)cc1` [Example 90, methyl 8R-(4-chlorophenyl)-4-{[(3S,4R)-4-(2-fluoro-4-methoxyphenyl)-1-(6-oxo-1,6-dihydropyridazin-3-yl)pyrrolidin-3-yl]carbonyl}-1,4-diazocane-1-carboxylate] showed an inhibitory constant (Ki) on MC3 receptor (MC3R) of 0.23 µM. Also, the microsomal CLint at 1 μM in series [1] was found to be 11.7 µL/min/mg.

For `CCCC(=O)N1CCN(C(=O)[C@@H]2CN(c3cccnn3)C[C@H]2c2ccc(F)cc2F)CCCC1c1ccccc1` (mixture of isomers) [Example 101], the Ki on MC3 receptor (MC3R) was 0.715 µM. Also, the microsomal CLint at 1 μM in series [1] came out at 143 µL/min/mg.

Turning to `COC(=O)N1CCN(C(=O)[C@@H]2CN(c3ccc(=O)n(C)n3)C[C@H]2c2ccc(OC)cc2F)CCC[C@H]1c1ccc(Cl)cc1` [Example 118], the Ki at MC3 receptor (MC3R) came to 0.178 µM. Moreover, the microsomal CLint at 1 μM in series [1] is 23.2 µL/min/mg.

Turning to `CC(=O)N1CCN(C(=O)[C@@H]2CN(c3ccc4nncn4n3)C[C@H]2c2ccc(Cl)cn2)CCC[C@H]1c1ccc(Cl)cc1` [Example 6, 6-[(3S,4S)-3-{[4-acetyl-5S-(4-chlorophenyl)-1,4-diazocan-1-yl]carbonyl}-4-(5-chloropyridin-2-yl)pyrrolidin-1-yl][1,2,4]triazolo[4,3-b]pyridazine], the Ki on MC3 receptor (MC3R) was 0.0895 µM. Besides, the microsomal CLint at 1 μM in series [1] was determined as 13.5 µL/min/mg.

Turning to `COC(=O)N1CCN(C(=O)[C@@H]2CN(c3ccc(=O)n(C)n3)C[C@H]2c2ccc(F)cc2F)CCC[C@H]1c1ccc(Cl)cc1` [Example 66, methyl (8S-4-chlorophenyl)-4-{[(3S,4R)-4-(2,4-difluorophenyl)-1-(1-methyl-6-oxo-1,6-dihydropyridazin-3-yl)pyrrolidin-3-yl]carbonyl}-1,4-diazocane-1-carboxylate], at MC3 receptor (MC3R), the Ki came out at 0.187 µM. Also, the microsomal CLint at 1 μM in series [1] is 20.5 µL/min/mg.

As for `COc1ccc([C@@H]2CN(C(C)(C)C)C[C@H]2C(=O)N2CCC[C@@H](c3ccc(Cl)cc3)N(C(C)=O)CC2)c(F)c1` [Example 70], the Ki on MC3 receptor (MC3R) was found to be 5.88 µM. Also, the microsomal CLint at 1 μM in series [1] is 28.3 µL/min/mg.

At MC3 receptor (MC3R), `CC(C)(C)C(=O)N1CCN(C(=O)[C@@H]2CN(C(C)(C)C)C[C@H]2c2ccc(F)cc2F)CCC[C@H]1c1ccc(Cl)cc1` [Example 15] gave a Ki of 3.38 µM. In addition, in series [1], the microsomal CLint at 1 μM amounted to 57.4 µL/min/mg.

As to `COC(=O)N1CCN(C(=O)[C@@H]2CN(c3ccc(=O)n(C)n3)C[C@H]2c2ccc(F)cc2F)CCC[C@@H]1c1ccc(Cl)cc1` [Example 56], at MC3 receptor (MC3R), affinity was put at a Ki of 0.187 µM. Besides, the microsomal CLint at 1 μM in series [1] is 20.5 µL/min/mg.

`CS(=O)(=O)N1CCN(C(=O)C2CN(c3ccc(=O)[nH]n3)CC2c2ccc(F)cc2F)CCCC1c1ccc(F)cc1` (stereo not shown) [Example 78] came in with a Ki at MC3 receptor (MC3R) of 3.22 µM. The microsomal CLint at 1 μM in series [1] was 54 µL/min/mg.

(Values after patent US8592403B2, “Diazepine and diazocane compounds as MC4 agonists” (Pfizer Limited, priority 2008, dated 2013).)
